Results from US20140037583A1, “METHODS AND COMPOSITIONS SUITABLE FOR PREVENTING AND TREATING HYPERLEPTINEMIA” (priority 2011, published 2014).

System: Leptin mRNA in terminally differentiated canine adipocytes
Test: Expression of leptin mRNA in canine adipocytes treated with Equol (quantitative PCR)
Type: cell-based
Conditions: 24 hours, n=3
Method: Treatment: Terminally differentiated canine adipocytes were exposed to 200, 25, and 0 uM Equol for 24 hours. Cells were collected for RNA isolation.
RNA Isolation: Treatment cell samples were vortexed and homogenized using a Quiashredder (Qiagen, Valencia, Calif.) column according to manufacturer's directions. The homogenized lysate was collected and 1 equal volume of 64% ethanol was added to it. This mixture was then applied to an RNAqueous™ filter cartridge, (Ambion Inc., Austin, Tex.) 700 uL at a time, and centrifuged for one minute at 10,000 rpm. The cartridge was washed using 700 uL wash solution #1 and 500 uL wash solution #2/3 with centrifugation at 10,000 rpm for one minute for each wash. The filter cartridge was dried by centrifugation (10,000 rpm) for one minute. […] The resulting RNA was DNAse-treated and quantitated in a Beckman DU 640B spectrophotometer (Beckman Coulter, Inc., Brea, Calif.) at 260 nm. Additionally, quantity and quality were assessed using a bioanalyzer (Agilent, Santa Clara, Calif.) according to manufacturer's directions.
Quantitative PCR: All samples were run singularly against each primer/probe set to determine what standard curve(s) should be used. […] Values were normalized to cyclophilin A (PPIA) levels as determined by quantitative PCR. Inductions were calculated from each of the lowest sample's normalized value. […]

Q: Which “Leptin mRNA expression (normalized to cyclophilin A, induction relative to lowest sample)” value (25 uM Equol) does the source give for `Oc1ccc([C@H]2COc3cc(O)ccc3C2)cc1` [Equol] here?
A: The value was 2.58.

Q: What about the “Leptin mRNA expression (normalized to cyclophilin A, induction relative to lowest sample)” value (200 uM Equol) of the same molecule?
A: Its value is 1.40.
